Experimental data published in paper PMC7178819, “6,7-Dimethoxy-2-phenethyl-1,2,3,4-tetrahydroisoquinoline amides and corresponding ester isosteres as multidrug resistance reversers” (Journal of Enzyme Inhibition and Medicinal Chemistry, 2020).

Legend:
[1] = Stability test in phosphate buffer solution (PBS); format: physicochemical; settings: 1 µM, 37 °C, up to 120 min
Protocol: (§1) Each sample was prepared adding 10 µL of working solution 1 to 100 µL of tested matrix (PBS or human plasma) in micro centrifuge tubes. The obtained solutions correspond to 1 µM of analyte.
Each set of samples was incubated in triplicate at four different times, 0, 30, 60 and 120 min at 37 °C. Therefore, the degradation profile of each analyte was represented by a batch of 12 samples (4 incubation times × 3 replicates). After the incubation, the samples were added with 300 µL of ISTD solution and centrifuged (room temperature for 5 min at 10,000 rpm). The supernatants were transferred in auto sampler vials and dried under a gentle stream of nitrogen.
(§2) The dried samples were dissolved in 1.0 ml of 10 mM of formic acid in mQ water: acetonitrile 80:20 solution. The obtained sample solutions were analysed by LC-MS/MS methods described in Supplementary material.
Due to the presence of ester or amide groups in the structure of compounds 1–26, a study aimed to evaluate their susceptibility to spontaneous or enzymatic hydrolysis, was planned. For this purpose, a series of experiments were carried out, adding a known amount of analyte in both phosphate buffer solution (PBS) and in human plasma. The samples were analysed by LC-MS/MS method operating in Multiple Reaction Monitoring (MRM) mode[55]. […]

[2] = target: T1, P-gp (Homo sapiens, UniProt P08183); test: Inhibition of Calcein-AM transport in MDCK-MDR1 cells; format: cell-based; settings: Calcein-AM, MDCK-MDR1 cells; mean ± SEM of two experiments
T1 construct: expressed in transfected cells; host or cells: MDCK-MDR1 (Madin-Darby Canine Kidney cells, gift of Prof. P. Borst, NKI-AVL)
Protocol: These experiments were carried out as previously described by Teodori et al. with minor modifications. Each cell line (30 000 cells per well) was seeded into black CulturePlate 96/wells plate with 100 µL medium and allowed to become confluent overnight. 100 µL of test compounds were solubilised in culture medium and added to monolayers, with final concentrations ranging from 1 nM to 100 µM. 96/Wells plate was incubated for 30 min in a humidified atmosphere 5% CO2 at 37 °C. Calcein-AM was added in 100 µL of Phosphate Buffered Saline (PBS) to yield a final concentration of 2.5 µM and plate was incubated for 30 min in a humidified atmosphere 5% CO2 at 37 °C. Each well was washed 3 times with ice cold PBS. Saline buffer was added to each well and the plate was read with Victor3 (PerkinElmer) at excitation and emission wavelengths of 485 and 535 nm, respectively. In these experimental conditions, Calcein cell accumulation in the absence and in the presence of tested compounds was evaluated and fluorescence basal level was estimated with untreated cells. In treated wells the increase of fluorescence with respect to basal level was measured. EC50 values were determined by fitting the fluorescence increase percentage versus log[dose].
The interaction potency between the designed compounds and P-gp was evaluated by measuring the transport inhibition of the pro-fluorescent probe Calcein-AM, that is a P-gp substrate, in a cell line overexpressing P-gp (MDCK-MDR1)[47]. The P-gp interacting profile was further investigated with two other assays: the Apparent Permeability (Papp) determination (BA/AB) in Caco-2 cell monolayer[48]^,[49], and the ATP cell depletion in the MDCK-MDR1 cell line[50]. […] Papp determination measures the ratio between two fluxes: from the basolateral to apical compartments (BA, representative of passive diffusion) and from the apical to basolateral compartments (AB, representative of active transport). […] In the same manner, if (BA/AB) >2, the compound should probably be classified as a substrate.

[3] = target: T1, P-gp; test: ATP cell depletion (ATPlite assay) in MDCK-MDR1 cells; format: cell-based; settings: Yes/No
Protocol: The MDCK-MDR1 cells were seeded into 96-well microplate in 100 µL of complete medium at a density 20,000 cells per well. The plate was incubated overnight (O/N) in a humidified atmosphere 5% CO2 at 37 °C. The medium was removed and 100 µL of complete medium either alone or containing different concentrations (ranging from 1 to 100 µM) of test compounds was added. The plate was incubated for 2 h in a humidified 5% CO2 atmosphere at 37 °C. 50 µL of mammalian cell lysis solution was added to all wells and the plate shacked for five minutes in an orbital shaker. 50 µL of substrate solution was added to all wells and the plate shacked for five minutes in an orbital shaker. The plate was dark adapted for ten minutes and the luminescence was measured.
(§3) The interaction potency between the designed compounds and P-gp was evaluated by measuring the transport inhibition of the pro-fluorescent probe Calcein-AM, that is a P-gp substrate, in a cell line overexpressing P-gp (MDCK-MDR1)[47]. The P-gp interacting profile was further investigated with two other assays: the Apparent Permeability (Papp) determination (BA/AB) in Caco-2 cell monolayer[48]^,[49], and the ATP cell depletion in the MDCK-MDR1 cell line[50]. Taking into account the results of the combined tests, an interacting compound can be classified as substrate or inhibitor. Papp determination measures the ratio between two fluxes: from the basolateral to apical compartments (BA, representative of passive diffusion) and from the apical to basolateral compartments (AB, representative of active transport). […] In the same manner, if (BA/AB) >2, the compound should probably be classified as a substrate. […] The selectivity of ligands 1–26 was evaluated by detecting their activity towards the other ABC transporters MRP1 and BCRP, by measuring the inhibition of the efflux of Calcein-AM (i.e., also a MRP1 substrate) in cells overexpressing MRP1 (MDCK-MRP1 cells), and the inhibition of the efflux of the fluorescent probe Hoechst 33342 (i.e. a BCRP substrate) in cells overexpressing BCRP (MDCK-BCRP cells), respectively.

[4] = Stability test in human plasma (LC-MS/MS); format: in vitro ADME; settings: 1 µM, 37 °C
Protocol: as §1
After the incubation, the samples were added with 300 µL of ISTD solution and centrifuged (room temperature for 5 min at 10,000 rpm). The supernatants were transferred in auto sampler vials and dried under a gentle stream of nitrogen.
as §2
For this purpose, a series of experiments were carried out, adding a known amount of analyte in both phosphate buffer solution (PBS) and in human plasma. The samples were analysed by LC-MS/MS method operating in Multiple Reaction Monitoring (MRM) mode[55].
The analyte concentration (1 µM) used during the stability tests is generally smaller than the corresponding Michaelis–Menten constant (KM); therefore, the enzymatic degradation rate is described by a first-order kinetic. Then, by plotting the natural logarithm of the quantitative data versus the incubation time, a linear function can be used and its slope represents the degradation rate (k).

[5] = Apparent permeability (Papp) determination (BA/AB) in Caco-2 cell monolayer; format: in vitro ADME; settings: human, Caco-2 monolayer
Protocol: Caco-2 cells were seeded onto a Millicell® assay system (Millipore), where a cell monolayer is set in between a filter cell and a receiver plate, at a density of 10 000 cells/well[46]. The culture medium was replaced every 48 h and the cells kept for 21 days in culture. The Trans Epithelial Electrical Resistance (TEER) of the monolayers was measured daily, before and after the experiment, using an epithelial volt-ohmmeter (Millicell®-ERS). Generally, TEER values greater than 1000 Ω for a 21 days culture, are considered optimal.
After 21 days of Caco-2 cell growth, the medium was removed from filter wells and from the receiver plate, which were filled with fresh HBSS buffer (Invitrogen). This procedure was repeated twice, and the plates were incubated at 37 °C for 30 min. After incubation time, the HBSS buffer was removed and drug solutions and reference compounds were added to the filter well at the concentration of 100 µM, while fresh HBSS was added to the receiver plate. The plates were incubated at 37 °C for 120 min. Afterwards, samples were removed from the apical (filter well) and basolateral (receiver plate) side of the monolayer to measure the permeability.
as §3

T1 sequence (P08183 whole entry): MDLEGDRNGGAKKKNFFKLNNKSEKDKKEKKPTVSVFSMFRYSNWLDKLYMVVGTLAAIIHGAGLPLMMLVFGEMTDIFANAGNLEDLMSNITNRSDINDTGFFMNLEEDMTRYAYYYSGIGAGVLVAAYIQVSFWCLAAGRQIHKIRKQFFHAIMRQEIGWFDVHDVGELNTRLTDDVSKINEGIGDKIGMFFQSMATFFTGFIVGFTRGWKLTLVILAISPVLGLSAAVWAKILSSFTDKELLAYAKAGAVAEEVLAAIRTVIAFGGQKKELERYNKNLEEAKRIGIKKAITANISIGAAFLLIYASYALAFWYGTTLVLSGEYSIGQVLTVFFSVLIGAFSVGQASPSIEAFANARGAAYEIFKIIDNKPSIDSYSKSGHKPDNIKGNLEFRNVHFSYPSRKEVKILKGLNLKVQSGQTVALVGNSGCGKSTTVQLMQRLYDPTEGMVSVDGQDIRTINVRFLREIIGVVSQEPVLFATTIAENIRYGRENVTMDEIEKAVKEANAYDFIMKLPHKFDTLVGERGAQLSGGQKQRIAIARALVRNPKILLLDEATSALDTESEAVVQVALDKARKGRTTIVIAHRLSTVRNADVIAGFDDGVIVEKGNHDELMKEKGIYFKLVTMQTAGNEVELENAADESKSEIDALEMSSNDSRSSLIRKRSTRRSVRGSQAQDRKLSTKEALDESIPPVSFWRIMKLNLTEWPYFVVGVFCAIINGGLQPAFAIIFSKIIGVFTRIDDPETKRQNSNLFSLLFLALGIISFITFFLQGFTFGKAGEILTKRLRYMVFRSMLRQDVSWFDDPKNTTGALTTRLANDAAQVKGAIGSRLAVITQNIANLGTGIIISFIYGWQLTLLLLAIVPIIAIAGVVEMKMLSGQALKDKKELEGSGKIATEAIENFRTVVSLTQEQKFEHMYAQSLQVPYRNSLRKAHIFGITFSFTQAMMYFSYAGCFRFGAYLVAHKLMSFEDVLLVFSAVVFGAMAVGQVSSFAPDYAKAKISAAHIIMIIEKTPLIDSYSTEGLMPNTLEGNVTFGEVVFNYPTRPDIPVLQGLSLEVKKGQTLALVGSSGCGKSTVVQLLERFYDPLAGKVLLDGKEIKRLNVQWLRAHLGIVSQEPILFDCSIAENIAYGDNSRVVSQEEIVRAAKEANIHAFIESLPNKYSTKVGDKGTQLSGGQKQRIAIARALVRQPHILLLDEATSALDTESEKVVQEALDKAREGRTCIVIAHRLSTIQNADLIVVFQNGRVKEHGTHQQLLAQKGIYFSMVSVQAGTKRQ

COc1cncc(C(=O)Nc2ccc(CCN3CCc4cc(OC)c(OC)cc4C3)cc2)n1 [Compound 12, N-(4–(2-(6,7-dimethoxy-3,4-dihydroisoquinolin-2(1H)-yl)ethyl)phenyl)-6-methoxypyrazine-2-carboxamide]
stability in PBS [1]: unmodified
EC50 [2]: 870 ± 170 nM
ATP cell depletion [3]: No
stability in human plasma ([4]; up to 120 min): stable over 120 min
half-life at 1 µM ([4]; human, human plasma): ≥ 4 h
efflux ratio at 120 min, 100 µM [5]: 6
